Measurements from PMC4061505 (Anesthesiology, 2014).
Several values for one entry are separate records, joined by “and”; a condition that tells them apart may be missing. Identical values can stand only once. Like-named read-outs stand apart in the source and are kept apart here.

Key:
α7-nAChR [1] = settings: cited from earlier work
α3β4-nAChR = settings: cited from earlier work; for IC50: α3β4-nAChR
NMDAR = settings: cited from earlier work
mTOR pathway = experiment: pmTOR, pAkt, pERK, p4E-BP1 and pp70S6K levels in PC-12 cells; assay type: cell-based, rat
[2] = system: monomeric serine racemase (m-SR); settings: PC-12 cells; compound alone; cited from earlier work
[3] = system: monomeric serine racemase (m-SR); experiment: Expression of monomeric serine racemase protein in PC-12 cells; assay type: cell-based, rat; settings: for Concentration of maximum increase in m-SR protein expression: gradual decline at higher concentrations
[4] = system: mTOR and related proteins; experiment: Western blot of phosphorylated mTOR and related proteins in rat brain; settings: 20 mg·kg^−1 intravenous; for Increase in phosphorylation of mTOR and its downstream targets: rat pre-frontal cortex, 60-min post-administration, p<0.05
anesthesia = settings: cited from earlier work
[5] = Brain tissue concentrations after administration to male Wistar rats
[6] = system: mTOR and related proteins; settings: cited from earlier work
α7-nAChR [7] = settings: cited from earlier work; remark: listed apart in the source
[8] = system: (S)-nicotine-induced currents in PC-12 cells; settings: cited from earlier work
[9] = time-dependent, significant in the 20- and 60-min samples
[10] = after (R,S)-norketamine 20 mg·kg^−1 intravenous, 10 min
[11] = after (R,S)-norketamine 20 mg·kg^−1 intravenous, 20 min
[12] = after (R,S)-norketamine 20 mg·kg^−1 intravenous, 60 min
[13] = after (R,S)-norketamine 20 mg·kg^−1 intravenous, 240 min
[14] = after (R,S)-ketamine 40 mg·kg^−1 intraperitoneal, 10 min
[15] = after (R,S)-ketamine 40 mg·kg^−1 intraperitoneal, 30 min
[16] = after (R,S)-ketamine 40 mg·kg^−1 intraperitoneal, 60 min
[17] = after (R,S)-ketamine 40 mg·kg^−1 intraperitoneal, 240 min

In the case of `N[C@@]1(c2ccccc2Cl)CCC[C@@H](O)C1=O` [(2R,6R)-hydroxynorketamine], the IC50 (α7-nAChR [1]) is listed as less than 0.1 µM, the “Activity at the α3β4-nAChR” value (α3β4-nAChR) is listed as “not active” and the “Activity at the NMDAR” value (NMDAR) is listed as “not active”.

For `CN1CCC[C@H]1c1cccnc1` [(S)-nicotine], the “Effect on the phosphorylation of pmTOR, p4E-BP1, pp70S6K, pERK1/2 and pAkt” value (mTOR pathway; (S)-nicotine alone, 2 μM, 1 h) is given as “no effect” and the “Effect on expression of m-SR” value [2] is given as “no effect”.

In the case of `N[C@]1(c2ccccc2Cl)CCC[C@H](O)C1=O`, the “Increase in expression of serine racemase” value (“Increase in expression” below) ([3]; 0.05nM) is reported as ~ 2 fold, the “Concentration of maximum increase in m-SR protein expression” value (“Concentration of maximum increase” below) ([3]; 36 h) is reported as 0.05 nM and the “Levels of phosphorylated mTOR, 4E-BP1, p70S6K, ERK1/2 and Akt and of m-SR protein” value (shortened to “Levels of phosphorylated mTOR, 4E-BP1”) (mTOR pathway) is reported as “significant increases”. The “Concentration above which pmTOR increase was markedly reduced” value (mTOR pathway; 60 min) was “greater than 1 nM”, the IC50 (α7-nAChR [1]) was less than 0.1 µM and the “Activity at the α3β4-nAChR” value (α3β4-nAChR) was “not active”. The IC50 (α3β4-nAChR) was greater than 300 µM, the “Activity at the NMDAR” value (NMDAR) was “not active” and the “Relative levels of pERK1/2 and pAkt” value ([4]; increased in the 20- and 60-min samples) was “did not reach statistical significance”. For the same molecule, the “Increase in p4E-BP1” value [4, 9] was ~ 2.0 fold, the “Increase in pmTOR” value [4, 9] was ~ 2.0 fold and the “Increase in pp70S6K” value [4, 9] was ~ 2.5 fold. The “Increase in phosphorylation of mTOR and its downstream targets” value [4] was greater than 2 fold.

In the case of `CCN1C[C@]2(COC(=O)c3ccccc3N3C(=O)C[C@H](C)C3=O)CC[C@H](OC)[C@@]34[C@@H]5C[C@H]6[C@H](OC)[C@@H]5[C@](O)(C[C@@H]6OC)[C@@](O)([C@@H](OC)[C@H]23)[C@@H]14` [methyllycaconitine], the “Levels of phosphorylated mTOR, 4E-BP1” value (mTOR pathway) is listed as “significant increases” and the “Effect on expression of m-SR” value [2] is listed as “significantly increases”.

In the case of `N[C@@]1(c2ccccc2Cl)CCC[C@@H](O)C1=O` [(2S,6S;2R,6R)-hydroxynorketamine], the Anesthetic activity (anesthesia; rat) is given as “no anesthetic effect” and the Anesthetic activity (anesthesia; rat; ref 9;2R,6R)-Hydroxynorketamine) is given as “lacks anesthetic activity”.

For `NC1(c2ccccc2Cl)CCCCC1=O` (racemic) [(R,S)-norketamine], the “Increase in expression” value ([3]; 10nM) was ~ 2 fold, the “Concentration of maximum increase” value ([3]; 36 h) was 10 nM and the “Levels of phosphorylated mTOR, 4E-BP1” value (mTOR pathway) was “significant increases”. For the same molecule, the “Concentration above which the increase lost significance” value (mTOR pathway; 60 min) was “greater than 250 nM”, the IC50 (α3β4-nAChR) was 9 µM and the Anesthetic activity (anesthesia; rat) was “produce anesthesia”. The “Rat brain tissue conc. of (2S,6S;2R,6R)-HNK” value [5, 10] was 16 ± 3 µM/g, the “Rat brain tissue conc. of (R,S)-norKet” value [5, 10] was 88 ± 8 µM/g and the “Rat brain tissue conc. of (2S,6S;2R,6R)-HNK” value [5, 11] was 16 ± 3 µM/g. For the same molecule, the “Rat brain tissue conc. of (R,S)-norKet” value [5, 11] was 51 ± 4 µM/g, the “Rat brain tissue conc. of (2S,6S;2R,6R)-HNK” value [5, 12] was 8.9 ± 0.7 µM/g and the “Rat brain tissue conc. of (R,S)-norKet” value [5, 12] was 20 ± 7 µM/g. The “Rat brain tissue conc. of (2S,6S;2R,6R)-HNK” value [5, 13] was 2.1 ± 0.4 µM/g, the “Rat brain tissue conc. of (R,S)-norKet” value [5, 13] was 1.0 ± 0.1 µM/g and the “Relative pAkt levels” value [4] was “not impacted”. For the same molecule, the “Levels of phosphorylated forms of mTOR, pp70S6K and p4E-BP1” value ([4]; 20- and 60-min samples) was “significant increases”, the “Increase in pmTOR levels” value ([4]; 20-min sample) was 15 fold and the “Increase in pmTOR levels” value ([4]; 60-min sample) was 25 fold. The “Increase in pERK level” value ([4]; significant) was ~ 6 fold and the “Increase in phosphorylation of mTOR and its downstream targets” value [4] was greater than 25 fold.

With `CNC1(c2ccccc2Cl)CCCCC1=O` (racemic) [(R,S)-ketamine] the “Increase in expression” value ([3]; 1000nM) was ~ 2 fold, the “Concentrations with significant increase in m-SR expression (ANOVA)” value ([3]; 36 h) was 600 nM and 1000 nM and the “Concentration of maximum increase” value ([3]; 36 h) was 600 nM. For the same molecule, the “Concentration required to produce the maximum effect on the mTOR pathway and m-SR expression” value (mTOR pathway) was 600 nM, the “Levels of phosphorylated mTOR, 4E-BP1” value (mTOR pathway) was “significant increases” and the “Concentration above which the increase lost significance” value (mTOR pathway; 60 min) was “greater than 2000 nM”. For the same molecule, the “Concentrations eliciting significant increases in protein phosphorylation” value (mTOR pathway; 60 min) was 400 to 600 nM, the “Increase in the phosphorylated forms of mTOR pathway proteins” value ([6]; Wistar rats, peaked at 30–60 min post-administration) was ~ 1.5 fold and the “Increase in pERK” value [6] was 1.5 fold. The IC50 (α7-nAChR [7]) was 20 µM, the IC50 (α3β4-nAChR) was 3 µM and the IC50 [8] was 5 µM. For the same molecule, the Anesthetic activity (anesthesia; rat) was “produce anesthesia”, the “Rat brain tissue conc. of (2S,6S;2R,6R)-HNK” value [5, 14] was 30 ± 5 µM/g and the “Rat brain tissue conc. of (R,S)-Ket” value [5, 14] was 137 ± 6 µM/g. For the same molecule, the “Rat brain tissue conc. of (R,S)-norKet” value [5, 14] was 21 ± 8 µM/g, the “Rat brain tissue conc. of (2S,6S;2R,6R)-HNK” value [5, 15] was 21 ± 8 µM/g and the “Rat brain tissue conc. of (R,S)-Ket” value [5, 15] was 52 ± 44 µM/g. The “Rat brain tissue conc. of (R,S)-norKet” value [5, 15] was 34 ± 6 µM/g, the “Rat brain tissue conc. of (2S,6S;2R,6R)-HNK” value [5, 16] was 25 ± 5 µM/g and the “Rat brain tissue conc. of (R,S)-Ket” value [5, 16] was 19 ± 9 µM/g. For the same molecule, the “Rat brain tissue conc. of (R,S)-norKet” value [5, 16] was 16 ± 4 µM/g, the “Rat brain tissue conc. of (2S,6S;2R,6R)-HNK” value [5, 17] was 11 ± 5 µM/g and the “Rat brain tissue conc. of (R,S)-Ket” value [5, 17] was 0.6 ± 0.1 µM/g. For the same molecule, the “Rat brain tissue conc. of (R,S)-norKet” value [5, 17] was 1.3 ± 0.3 µM/g.
